Data: patent US20020137929A1, “1 - (3-heterocyclylphenyl) isothiourea, -isourea, -guanidine and -amidine herbicidal agents” (Intellectual Property Department, BASF Aktiengesellschaft, priority 1998, published 2002)

Legend:
[1] = tested on: GALAP (Galium); test: Postemergence herbicidal evaluation; format: in vivo, Galium aparine
In short: (§1)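 Herbicidal effect was judged by eye on a 0–9 scale covering stand, vigor, deformity, size and chlorosis, compared with controls, four to five weeks after seedlings about two weeks old were sprayed (40 psi, ~0.0156–0.500 kg/ha).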

[2] = tested on: IPOHE (Morningglory, Ivyleaf); test: Postemergence herbicidal evaluation; format: in vivo, Ipomoea hederacea
In short: as §1

[3] = tested on: SETVI (Foxtail, Green); test: Postemergence herbicidal evaluation; format: in vivo, Setaria viridis
In short: as §1

[4] = tested on: TRZAWR (Wheat, Winter, cv Riband); test: Postemergence herbicidal evaluation; format: in vivo, Triticum aestivum
In short: as §1

[5] = tested on: ABUTH (Velvetleaf); test: Preemergence herbicidal evaluation; format: in vivo, Abutilon theophrasti; details: rated 4-5 weeks after treatment
In short: (§2)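 In this greenhouse assay, monocot and dicot seeds are planted in soil and treated prior to emergence with an aqueous acetone spray (about 0.0156-0.500 kg/ha). Plants are assessed visually against control on a 0-9 scale after 4-5 weeks.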

[6] = tested on: IPOHE (Morningglory, Ivyleaf); test: Preemergence herbicidal evaluation; format: in vivo, Ipomoea hederacea; details: rated 4-5 weeks after treatment
In short: as §2

[7] = tested on: ECHCG (Barnyardgrass); test: Preemergence herbicidal evaluation; format: in vivo, Echinochloa crus-galli; details: rated 4-5 weeks after treatment
In short: as §2

[8] = tested on: SETVI (Foxtail, Green); test: Preemergence herbicidal evaluation; format: in vivo, Setaria viridis; details: rated 4-5 weeks after treatment
In short: as §2

[9] = tested on: ZEAMX (Corn, Field); test: Preemergence herbicidal evaluation; format: in vivo, Zea mays; details: rated 4-5 weeks after treatment
In short: as §2

[10] = tested on: ECHORC (Watergrass (Calif.)); test: Preemergence weed control under flooded paddy conditions; format: in vivo, Echinochloa oryzoides; details: rated 3-4 weeks after treatment
In short: (§3)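 Silt loam, seeds in top 0.5 cm; flood held 1.5-3 cm; test cpd as acetone/water 50/50 into flood water, ~0.0313-0.500 kg/ha a.i.; greenhouse 3-4 wk; visual 0-9 score vs control.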

[11] = tested on: CYPIR (Rice Flatsedge); test: as above; format: in vivo, Cyperus iria; details: rated 3-4 weeks after treatment
In short: as §3

[12] = tested on: ECHORC (Watergrass (Calif.)); test: Postemergence weed control under flooded paddy conditions; format: in vivo, Echinochloa oryzoides; details: postemergence weeds, 3-4 weeks after treatment
In short: (§4)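 Containers holding 3–5 cm weeds and rice at 1.5–2.5 leaves are flooded to 1.5–3 cm above soil. Compound in 50/50 v/v aqueous/acetone is then added directly to the water, about 0.0313–0.500 kg/ha. Plants are kept in the greenhouse and rated 0–9 visually at 3–4 weeks.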

[13] = tested on: SAGPY (Arrowhead (Pygmaea)); test: as above; format: in vivo, Sagittaria pygmaea; details: postemergence weeds, 3-4 weeks after treatment
In short: as §4

CCOP(=O)(CN1C(=O)CSC1=Nc1cc(-n2c(=O)cc(C(F)(F)F)n(C)c2=O)c(F)cc1Cl)OCC [Compound 35, Diethyl {{2-{{2-chloro-5-[3,6-dihydro-3-methyl-2,6-dioxo-4-(trifluoromethyl)-1(2H)-pyrimidinyl]-4-fluorophenyl}imino}-4-oxo-3-thiazolidinyl}methyl}phosphonate]
Postemergence herbicidal rating GALAP ([1]; Rate 0.0158 kg/ha): 4.0 | Postemergence herbicidal rating GALAP ([1]; Rate 0.0315 kg/ha): 5.0 | Postemergence herbicidal rating GALAP ([1]; Rate 0.0630 kg/ha): 5.0 | Postemergence herbicidal rating IPOHE ([2]; Rate 0.0158 kg/ha): 9.0 | Postemergence herbicidal rating IPOHE ([2]; Rate 0.0315 kg/ha): 9.0 | Postemergence herbicidal rating IPOHE ([2]; Rate 0.0630 kg/ha): 9.0 | Postemergence herbicidal rating SETVI ([3]; Rate 0.0158 kg/ha): 0.0 | Postemergence herbicidal rating SETVI ([3]; Rate 0.0315 kg/ha): 2.0 | Postemergence herbicidal rating SETVI ([3]; Rate 0.0630 kg/ha): 4.0 | Postemergence herbicidal rating TRZAWR ([4]; Rate 0.0158 kg/ha): 2.5 | Postemergence herbicidal rating TRZAWR ([4]; Rate 0.0315 kg/ha): 3.0 | Postemergence herbicidal rating TRZAWR ([4]; Rate 0.0630 kg/ha): 3.5 | Preemergence herbicidal rating ABUTH ([5]; rate 0.0625 kg/ha): 9.0 | Preemergence herbicidal rating ABUTH ([5]; rate 0.1250 kg/ha): 9.0 | Preemergence herbicidal rating ABUTH ([5]; rate 0.2500 kg/ha): 9.0 | Preemergence herbicidal rating IPOHE ([6]; rate 0.0625 kg/ha): 0.0 | Preemergence herbicidal rating IPOHE ([6]; rate 0.1250 kg/ha): 3.0 | Preemergence herbicidal rating IPOHE ([6]; rate 0.2500 kg/ha): 9.0 | Preemergence herbicidal rating ECHCG ([7]; rate 0.0625 kg/ha): 0.0 | Preemergence herbicidal rating ECHCG ([7]; rate 0.1250 kg/ha): 0.0 | Preemergence herbicidal rating ECHCG ([7]; rate 0.2500 kg/ha): 0.0 | Preemergence herbicidal rating SETVI ([8]; rate 0.0625 kg/ha): 0.0 | Preemergence herbicidal rating SETVI ([8]; rate 0.1250 kg/ha): 0.0 | Preemergence herbicidal rating SETVI ([8]; rate 0.2500 kg/ha): 9.0 | Preemergence herbicidal rating ZEAMX ([9]; rate 0.0625 kg/ha): 0.0 | Preemergence herbicidal rating ZEAMX ([9]; rate 0.1250 kg/ha): 0.0 | Preemergence herbicidal rating ZEAMX ([9]; rate 0.2500 kg/ha): 0.0 | Herbicidal rating ECHORC ([10]; 0.1250 kg/ha): 3.0 | Herbicidal rating ECHORC ([10]; 0.2500 kg/ha): 6.0 | Herbicidal rating CYPIR ([11]; 0.1250 kg/ha): 0.0 | Herbicidal rating CYPIR ([11]; 0.2500 kg/ha): 0.0 | Herbicidal rating ECHORC ([12]; rate 0.1250 kg/ha): 3.0 | Herbicidal rating ECHORC ([12]; rate 0.2500 kg/ha): 6.0 | Herbicidal rating SAGPY ([13]; rate 0.1250 kg/ha): 0.0 | Herbicidal rating SAGPY ([13]; rate 0.2500 kg/ha): 3.0

CCOC(=O)CN1CCSC1=Nc1cc(-n2nc(C)n(C(F)F)c2=O)c(F)cc1Cl [Compound 36]
Postemergence herbicidal rating GALAP ([1]; Rate 0.0158 kg/ha): 0.0 | Postemergence herbicidal rating GALAP ([1]; Rate 0.0315 kg/ha): 1.0 | Postemergence herbicidal rating GALAP ([1]; Rate 0.0630 kg/ha): 4.0 | Postemergence herbicidal rating IPOHE ([2]; Rate 0.0158 kg/ha): 9.0 | Postemergence herbicidal rating IPOHE ([2]; Rate 0.0315 kg/ha): 9.0 | Postemergence herbicidal rating IPOHE ([2]; Rate 0.0630 kg/ha): 9.0 | Postemergence herbicidal rating SETVI ([3]; Rate 0.0158 kg/ha): 3.0 | Postemergence herbicidal rating SETVI ([3]; Rate 0.0315 kg/ha): 9.0 | Postemergence herbicidal rating SETVI ([3]; Rate 0.0630 kg/ha): 9.0 | Postemergence herbicidal rating TRZAWR ([4]; Rate 0.0158 kg/ha): 1.5 | Postemergence herbicidal rating TRZAWR ([4]; Rate 0.0315 kg/ha): 2.5 | Postemergence herbicidal rating TRZAWR ([4]; Rate 0.0630 kg/ha): 3.5 | Preemergence herbicidal rating ABUTH ([5]; rate 0.0625 kg/ha): 9.0 | Preemergence herbicidal rating ABUTH ([5]; rate 0.1250 kg/ha): 9.0 | Preemergence herbicidal rating ABUTH ([5]; rate 0.2500 kg/ha): 9.0 | Preemergence herbicidal rating IPOHE ([6]; rate 0.0625 kg/ha): 0.0 | Preemergence herbicidal rating IPOHE ([6]; rate 0.1250 kg/ha): 0.0 | Preemergence herbicidal rating IPOHE ([6]; rate 0.2500 kg/ha): 0.0 | Preemergence herbicidal rating ECHCG ([7]; rate 0.0625 kg/ha): 0.0 | Preemergence herbicidal rating ECHCG ([7]; rate 0.1250 kg/ha): 2.0 | Preemergence herbicidal rating ECHCG ([7]; rate 0.2500 kg/ha): 6.0 | Preemergence herbicidal rating SETVI ([8]; rate 0.0625 kg/ha): 0.0 | Preemergence herbicidal rating SETVI ([8]; rate 0.1250 kg/ha): 9.0 | Preemergence herbicidal rating SETVI ([8]; rate 0.2500 kg/ha): 9.0 | Preemergence herbicidal rating ZEAMX ([9]; rate 0.0625 kg/ha): 0.0 | Preemergence herbicidal rating ZEAMX ([9]; rate 0.1250 kg/ha): 3.0 | Preemergence herbicidal rating ZEAMX ([9]; rate 0.2500 kg/ha): 6.0 | Herbicidal rating ECHORC ([10]; 0.0313 kg/ha): 4.0 | Herbicidal rating ECHORC ([10]; 0.0625 kg/ha): 6.0 | Herbicidal rating ECHORC ([10]; 0.1250 kg/ha): 7.0 | Herbicidal rating ECHORC ([10]; 0.2500 kg/ha): 9.0 | Herbicidal rating CYPIR ([11]; 0.0313 kg/ha): 0.0 | Herbicidal rating CYPIR ([11]; 0.0625 kg/ha): 5.0 | Herbicidal rating CYPIR ([11]; 0.1250 kg/ha): 5.0 | Herbicidal rating CYPIR ([11]; 0.2500 kg/ha): 9.0 | Herbicidal rating ECHORC ([12]; rate 0.0313 kg/ha): 4.0 | Herbicidal rating ECHORC ([12]; rate 0.0625 kg/ha): 6.0 | Herbicidal rating ECHORC ([12]; rate 0.1250 kg/ha): 7.0 | Herbicidal rating ECHORC ([12]; rate 0.2500 kg/ha): 9.0 | Herbicidal rating SAGPY ([13]; rate 0.0313 kg/ha): 0.0 | Herbicidal rating SAGPY ([13]; rate 0.0625 kg/ha): 0.0 | Herbicidal rating SAGPY ([13]; rate 0.1250 kg/ha): 3.0 | Herbicidal rating SAGPY ([13]; rate 0.2500 kg/ha): 9.0
